# Patent US4443436A, “C-20-Modified macrolide derivatives of the macrolide antibiotics tylosin, desmycosin, macrocin, and lactenocin” (Eli Lilly and Company, priority 1982, dated 1984)
# “And” between values parts separate entries of the source, which are not always exact repeats. Equal entries are not always repeated. Where two headings read alike, the source gives them in different places.
# Columns and labels:
# [1] = test system: Staphylococcus epidermidis EPI2; experiment: MIC, standard agar-dilution assay, Staphylococcus epidermidis EPI2; type: cell-based; settings: Staphylococcus epidermidis EPI2; agar dilution
# Mycoplasma hyorhinis = experiment: MIC, broth-dilution microtiter test, Mycoplasma hyorhinis; type: cell-based
# From the text: (§1) The MIC's in Table X were obtained using conventional broth-dilution microtiter tests.
# [2] = test system: Staphylococcus aureus X1.1; experiment: MIC, standard agar-dilution assay, Staphylococcus aureus X1.1; type: cell-based
# Streptococcus Group 9960 = experiment: MIC, standard agar-dilution assay, Streptococcus Group 9960; type: cell-based; settings: Streptococcus Group 9960, agar dilution
# [3] = test system: Streptococcus pyogenes C203; experiment: MIC, standard agar-dilution assay, Streptococcus pyogenes C203; type: cell-based
# Mycoplasma hyopneumoniae = experiment: MIC, broth-dilution microtiter test, Mycoplasma hyopneumoniae; type: cell-based; settings: Mycoplasma hyopneumoniae, broth-dilution microtiter
# From the text: as §1
# [4] = test system: Pasteurella multocida 17E; experiment: MIC, broth-dilution microtiter test, Pasteurella multocida 17E; type: cell-based; settings: Pasteurella multocida 17E, bovine isolate, broth-dilution microtiter
# From the text: as §1
# Staphylococcus aureus = experiment: MIC, broth-dilution microtiter test, Staphylococcus aureus; type: cell-based; settings: broth-dilution microtiter
# From the text: as §1
# Pasteurella multocida [5] = experiment: Subcutaneous treatment of Pasteurella multocida-infected chicks; type: in vivo, one-day-old chicks
# Description: Many of the C-20 modified derivatives of this invention have also shown in vivo antibacterial activity against infections induced by gram-negative bacteria. Tables XII and XIII summarize the results of tests in which illustrative compounds were evaluated against Pasteurella infection in one-day-old chicks. The compounds were administered parenterally or orally after challenge of the chicks with Pasteurella multocida (0.1 ml of a 10^-4 dilution of a twenty-hour tryptose broth culture of an avian P. multocida given subcutaneously). In these tests, unless indicated otherwise, all non-medicated infected chicks died within 24 hours of Pasteurella challenge. In the tests summarized in Table XII the compounds were administered by subcutaneous injection at a dosage of 30 mg/kg, 1 and 4 hours post-challenge of the chicks with P. multocida. In the test summarized in Table XIII the compounds were administered by gavage at 1 and 5 hours post-challenge of the chicks with P. multocida.
# [6] = test system: Staphylococcus aureus V41; experiment: MIC, standard agar-dilution assay, Staphylococcus aureus V41; type: cell-based; settings: Staphylococcus aureus V41, penicillin-resistant strain, agar dilution
# [7] = test system: Haemophilus influenzae R252; experiment: MIC, standard agar-dilution assay, Haemophilus influenzae R252; type: cell-based; settings: Haemophilus influenzae R252, ampicillin-resistant strain
# Mycoplasma gallisepticum = experiment: MIC, broth-dilution microtiter test, Mycoplasma gallisepticum; type: cell-based; settings: Mycoplasma gallisepticum, broth-dilution microtiter
# From the text: as §1
# [8] = test system: Streptococcus pyogenes C203; experiment: In vivo protection of mice experimentally infected with S. pyogenes C203; settings: mice, doses given 1 and 4 hours post-infection; for ED50: Streptococcus pyogenes
# Description: The C-20 modified derivatives of this invention have shown in vivo antimicrobial activity against experimentally-induced infections in laboratory animals. When two doses of test compound were administered to mice experimentally infected with S. pyogenes C203, the activity observed was measured as an ED50 value [effective dose in mg/kg to protect 50% of the test animals: see Warren Wick, et al., J. Bacteriol. 81, 233-235 (1961)].
# [9] = test system: Staphylococcus aureus S13E; experiment: MIC, standard agar-dilution assay, Staphylococcus aureus S13E; type: cell-based
# [10] = test system: Staphylococcus aureus X400; experiment: MIC, standard agar-dilution assay, Staphylococcus aureus X400; type: cell-based; settings: Staphylococcus aureus X400, methicillin-resistant strain, agar dilution
# [11] = test system: Pasteurella hemolytica 22C; experiment: MIC, broth-dilution microtiter test, Pasteurella hemolytica 22C; type: cell-based; settings: Pasteurella hemolytica 22C, broth-dilution microtiter
# From the text: as §1
# [12] = test system: Streptococcus pneumoniae Park I; experiment: microbe, parasite or virus in culture; type: cell-based; settings: Streptococcus pneumoniae Park I, agar dilution
# [13] = test system: Staphylococcus epidermidis EPI1; experiment: MIC, standard agar-dilution assay, Staphylococcus epidermidis EPI1; type: cell-based; settings: Staphylococcus epidermidis EPI1, agar dilution
# [14] = test system: Haemophilus influenzae Holt; experiment: MIC, standard agar-dilution assay, Haemophilus influenzae Holt; type: cell-based
# [15] = test system: Pasteurella multocida 60A; experiment: MIC, broth-dilution microtiter test, Pasteurella multocida 60A; type: cell-based; settings: Pasteurella multocida 60A, avian isolate, broth-dilution microtiter
# From the text: as §1
# [16] = test system: Streptococcus Group D X66; experiment: MIC, standard agar-dilution assay, Streptococcus Group D X66; type: cell-based; settings: Streptococcus Group D X66, agar dilution
# Mycoplasma synoviae = experiment: MIC, broth-dilution microtiter test, Mycoplasma synoviae; type: cell-based; settings: Mycoplasma synoviae; broth-dilution microtiter
# From the text: as §1
# Streptococcus bovis 80 = experiment: MIC, broth-dilution microtiter test, Streptococcus bovis 80; type: cell-based
# From the text: as §1
# Pasteurella multocida [17] = experiment: Oral (gavage) treatment of Pasteurella multocida-infected chicks; type: in vivo, one-day-old chicks
# Outline: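 One-day-old chicks challenged subcutaneously with 0.1 ml of a 10^-4 dilution of a 20-hour tryptose broth culture of avian P. multocida. Compounds given by subcutaneous injection at 30 mg/kg 1 and 4 hours post-challenge, or by oral gavage 1 and 5 hours post-challenge.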
# [18] = 30 mg/kg × 2, 1 and 4 hours post-challenge
structure (smiles),measurement,setting,value
"CCOC(=O)NN(CCC1CC(C)C(=O)C=CC(C)=CC(COC2OC(C)C(O)C(OC)C2OC)C(CC)OC(=O)CC(O)C(C)C1OC1OC(C)C(O)C(N(C)C)C1O)C(=O)OCC (centres unmarked) [Compound 45, 20-DH-DO-20-[N-(Ethoxycarbonyl)-N-(ethoxycarbonylamino)]aminodesmycosin]",MIC,[1],0.25 µg/mL
same,MIC,"Mycoplasma hyorhinis; Mycoplasma hyorhinis, broth-dilution microtiter","-- (Not active at 50 mcg/ml, the highest level tested)"
same,MIC,"[2]; Staphylococcus aureus X1.1, agar dilution",0.5 µg/mL
same,MIC,Streptococcus Group 9960,8 µg/mL
same,MIC,"[3]; Streptococcus pyogenes C203, agar dilution",2 µg/mL
same,MIC,Mycoplasma hyopneumoniae,6.25 µg/mL
same,MIC,[4],25 µg/mL
same,MIC,Staphylococcus aureus,1.56 µg/mL
same,Number of Deaths/Number Treated,Pasteurella multocida [5]; [18],9/10
same,MIC,[6],0.5 µg/mL
same,MIC,[7]; agar dilution,32 µg/mL
same,MIC,Mycoplasma gallisepticum,0.39 µg/mL
same,"ED50, Oral",[8]; oral,> 50 mg/kg × 2
same,"ED50, Subcutaneous",[8]; subcutaneous,2.1 mg/kg × 2
same,MIC,"[9]; Staphylococcus aureus S13E, agar dilution",0.5 µg/mL
same,MIC,[10],1 µg/mL
same,MIC,[11],50 µg/mL
same,MIC,[12],0.5 µg/mL
same,MIC,[13],0.5 µg/mL
same,MIC,"[14]; Haemophilus influenzae Holt, ampicillin-sensitive strain, agar dilution",32 µg/mL
same,MIC,[15],25 µg/mL
same,MIC,[16],16 µg/mL
same,MIC,Mycoplasma synoviae,6.25 µg/mL
same,MIC,"Streptococcus bovis 80; Streptococcus bovis 80, broth-dilution microtiter",12.5 µg/mL
"CCC1OC(=O)CC(O)C(C)C(OC2OC(C)C(O)C(N(C)C)C2O)C(CCCl)CC(C)C(=O)C=CC(C)=CC1COC1OC(C)C(O)C(OC)C1OC (centres unmarked) [Compound 21, 20-DH-DO-20-Chlorodesmycosin]",MIC,Mycoplasma hyorhinis; Mycoplasma,50 µg/mL
same,MIC,"[2]; Staphylococcus aureus, X1.1",0.25 µg/mL
same,MIC,"Streptococcus Group 9960; GROUP9960, read-out: MIC",8 µg/mL
same,MIC,"[3]; Streptococcus pyogenes, C203",0.25 µg/mL
same,MIC,"Mycoplasma hyopneumoniae; Mesomycoplasma hyopneumoniae, read-out: MIC",12.5 µg/mL
same,MIC,[4]; read-out: MIC,12.5 µg/mL
same,MIC,Staphylococcus aureus; read-out: MIC,0.78 µg/mL
same,Number of Deaths/Number Treated,Pasteurella multocida [5]; [18],9/10
same,Number of Deaths/Number Treated,"Pasteurella multocida [5]; 30 mg/kg × 2, 8/10 infected nonmedicated chicks died in this test",7/10
same,MIC,[6]; read-out: MIC,0.12 µg/mL
same,MIC,[7]; read-out: MIC,16 µg/mL
same,MIC,"Mycoplasma gallisepticum; Mycoplasmoides gallisepticum, read-out: MIC",0.39 µg/mL
same,ED50,"[8]; C203, sc, subcutaneous, read-out: ED50, Subcutaneous",0.7 mg/kg
same,ED50,"[8]; C203, oral, read-out: ED50, Oral",6 mg/kg
same,MIC,"[9]; Staphylococcus aureus, S13E",0.12 µg/mL
same,MIC,[10]; read-out: MIC,0.5 µg/mL
same,MIC,[11]; read-out: MIC,12.5 µg/mL
same,MIC,[12]; read-out: MIC,1 µg/mL
same,MIC,[13]; read-out: MIC,0.12 µg/mL
same,MIC,[14]; Haemophilus influenzae,16 µg/mL
same,MIC,[15]; read-out: MIC,6.25 µg/mL
same,MIC,[16]; read-out: MIC,8 µg/mL
same,Number of Deaths/Number tested,Pasteurella multocida [17]; 1.0 g/gal equivalent,3/9
same,Number of Deaths/Number tested,Pasteurella multocida [17]; 2.0 g/gal equivalent,0/9 and 0/10
same,Number of Deaths/Number tested,"Pasteurella multocida [17]; 2.0 g/gal equivalent, 13/20 infected nonmedicated chicks died in this test",2/10
same,MIC,"Streptococcus bovis 80; Streptococcus equinus, 80",3.12 µg/mL
